Like-named read-outs stand apart in the source and are kept apart here.
Legend:
[1] = tested on: diamond back moth; assay: Insecticidal activity against diamond back moth in greenhouse (airbrush spraying of cabbage leaf discs); format: in vivo; conditions: Plutella xylostella, foliar, 72 h, read-out: Mortality of diamond back moth (%)
Protocol: (§1) Compounds were dissolved in mixed solvent (acetone:methanol=1:1), and diluted to required concentration with water containing 0.1% of tweed 80.
(§2) The method of spraying by airbrush: The cabbage leaves were made into plates of 2 cm diameter by use of punch. A test solution (0.5 ml) was sprayed by airbrush at the pressure of 0.7 kg/cm^2 to both sides of every plate. 10 Second instar larvae were put into the petri-dishes after the leaf disc air-dried and 3 replicates were set for each treatment. Then the insects were maintained in observation room (25° C., 60˜70% R.H.), Scores were conducted and mortalities were calculated after 72 h.

[2] = tested on: armyworm; assay: Insecticidal activity against armyworm in greenhouse (airbrush spraying of corn leaf discs); format: in vivo; conditions: 72 h; for control of the armyworm: 600 mg/L; for Mortality of armyworm (%) / mortality at 10 µg/mL / mortality at 100 µg/mL: parallel determination; for mortality at 10 µg/mL / mortality at 100 µg/mL: Mythimna separata, foliar
Protocol: as §1
as §2, with “corn” for “cabbage”, “Petri-dishes” for “petri-dishes”, “thr” for “for”, “R.H.).” for “R.H.),”

[3] = tested on: Prodenia litura; conditions: 500 ppm; cited from earlier work
[4] = tested on: Heliothis virescens; conditions: 100 ppm; cited from earlier work
[5] = tested on: beet armyworm; assay: Insecticidal activity against beet armyworm (24 well-plate artificial diet emulsion method); format: in vivo; conditions: Spodoptera exigua, 72 h, read-out: Mortality of beet armyworm (%)
Protocol: as §1
24 well-plate artificial diet emulsion method: artificial food was added to each well of the 24 well-plate, after the artificial food was cooled, the prepared solution were added into the 24 well-plate according to the experimental design by order of chemical concentrations from low to high, by gently shaking the even emulsion film can be formed on the surface of the diet. 24 neat and healthy larvae were put into the 24 well-plate (one larvae each well) after the film was air-dried and 3 replicates were set for each treatment. Then the insects were maintained in observation room (25° C., 60˜70% R.H.). Scores were conducted and mortalities were calculated after 72 h.

[6] = tested on: housefly; assay: Insecticidal activity against housefly (diet incorporation test); format: in vivo; conditions: Musca domestica, 72 h, read-out: Mortality of housefly (%)
Protocol: Diet Incorporation Tests: the test compound was dissolved with 90% acetone to obtain the mother liquor after weigh accurately with an electronic balance. The required concentration solution was got by diluting to the mother liquor with a certain concentration milk powder solution according to the designed doses in the experiment. Then, the diluted concentration solution was evenly put into the petri dishes with diameter of 6 cm inside which filter paper was placed by using a transferring-liquid gun ([…], solution each petri dish). Finally the 3rd instars of larvae were put into petri dishes with 10 each petri dish, and 3 replicates were set for each treatment. Then the insects were maintained in observation room (25° C., 60˜70% R.H.). Scores were conducted and mortalities were calculated after 72 h.

[7] = tested on: beet armyworm; assay: Field trial against beet armyworm on cabbage; format: in vivo, Laphygma exigua; conditions: 105 g a.i./hm^2, 10% EC
Protocol: The trial was carried out in rain shelter area of experimental field of Wuhan vegetable research institute, the test crop is cabbage (variety: Jingfeng NO. 1). The dosage of the invention compound 1 (Example 11, 10% EC, same as below) are 75, 105, 150 g a.i./hm^2. and the comparative agent pyridalyl (10% EC, commercially available, same as below) is 105 g a.i./hm^2. The agent was applied on 9 Oct. 2011. The application tool is Linong 16HD-400 type backpack spray. Evenly spraying to whole cabbage which is in rosette stage was conducted. Beet armyworm is mainly larvae. The plot area is 25 m^2 and 4 replicates and randomized block arrangement were set. The amount of spray liquid is 750 L/hm^2. It was sunny and there was no wind, with the highest temperature of 28° C. and the lowest of 15° C. on the day of the application. Chosen 10 plants from each plot and scored the larvae at different instars at fixing time. The base number was investigated before treatment. The number of living larvae was counted after 1 day, 3 days, 7 days and 14 days respectively after application and control efficacy was calculated.
(§3) Calculation Method: Decrease rate of insects (%)=(the number of insects before application−the number of insects after application) the number of insects before application×100 Control efficacy (%)=(decrease rate of insects in treated area decrease rate of insects in blank comparative area)/(100−decrease rate of insects in blank comparative area)×100

[8] = tested on: diamond back moth; assay: Field trial against diamond back moth on cabbage; format: in vivo, Plutella xylostella; conditions: 105 g a.i./hm^2, 10% EC
Protocol: as §3
The trial was carried out in the test filed of Shenyang Research Institute of Chemical industry Ltd. The trial crop is cabbage (Variety: Zhonggan NO 8.). The dosage of the compound 1 are 75, 105, 150 g a.i./hm^2 and comparative agent pyridalyl is 105 g a.i./hm^2. The agent was applied once on 13 Jun. 2011. The application tool is Shandongweishi WS-16P type backpack manual sprayer. Evenly spraying to whole cabbage which is in rosette stage was conducted. Diamond back moth is originated at the peak time. The plot area is 10 m^2, 3 replicates and randomized block arrangement were set. The amount of spray liquid is 750 L/hm^2. It was sunny with the highest temperature of 29° C., and the lowest of 17° C. on the day of the application of the spray. The methods of investigation and calculation are the same as Example 13.

[9] = tested on: cabbage butterfly (Pierisrapae Linne); assay: Field trial against cabbage butterfly; format: in vivo; conditions: 105 g a.i./hm^2, 10% EC
Protocol: as §3
The trial was carried out in a farmer's vegetable field in Xiangcheng District Suzhou City. The variety of the cabbage is Xinxia 50. The dosage of the compound 1 are 75, 105, 150 g a.i./hm^2 and the comparative agent pyridalyl is 105 g a.i./hm^2. The agent was applied on 26 May 2011. The application tool is Singaporean Linong HD-400 type backpack spray. Evenly spraying to whole cabbage which is at vegetative growth phase was conducted, Cabbage butterfly is at a peak time of 1-3 instars of larvae. The plot area is 15 m^2, 4 replicates and randomized block arrangement were set. The amount of spray liquid is 750 L/hm^2. It was from sunny to cloudy with the highest temperature of 22.6° C., and the lowest of 17.8° C. on the day of the application of the spray. Chosen 10 plants from each plot and scored the larvae at different instars at fixing time. The base number was investigated before treatment. The number of living larvae was counted after 1 day, 4 days, 7 days and 12 days respectively after application and control efficacy was calculated.
Calculation method: the same as Example 13.

[10] = 6.25 mg/L, parallel determination
[11] = 25 mg/L, parallel determination
[12] = 50 mg/L, parallel determination

Compound: FC(F)(F)c1cnc(Oc2ccc(OCCCOc3c(Cl)cc(OCC=C(Cl)Cl)cc3Cl)cc2)c(Cl)c1 [Compound 2]
- mortality at 6.25 µg/mL [1, 10]: 75%
- mortality at 25 µg/mL [1, 11]: 100%
- mortality at 50 µg/mL [1, 12]: 100%

Compound: Fc1cc(Cl)cnc1Oc1ccc(OCCCOc2c(Cl)cc(OCC=C(Cl)Cl)cc2Cl)cc1 [Compound 3]
- control of the armyworm [2]: 100%

Compound: ClC(Cl)=CCOc1cc(Cl)c(OCCCOc2ccc(Oc3nc(Cl)c(Cl)cc3Cl)cc2)c(Cl)c1 [Compound 11]
- control of the armyworm [2]: 100%

Compound: ClC(Cl)=CCOc1cc(Cl)c(OCCCOc2ccc(Oc3ccccc3)cc2)c(Cl)c1 [Compound 38]
- control of the armyworm [2]: 100%

Compound: CC(C)(C)n1ncc(Oc2ccc(OCCCOc3c(Cl)cc(OCC=C(Cl)Cl)cc3Cl)cc2)c(Cl)c1=O [Compound 57]
- control of the armyworm [2]: 100%

Compound: Fc1cccc(Cl)c1COc1ccc(OCCCOc2c(Cl)cc(OCC=C(Cl)Cl)cc2Cl)cc1 [Compound 72]
- control of the armyworm [2]: 100%

Compound: ClC(Cl)=CCOc1cc(Cl)c(OCCCOc2ccc(OCc3cnc(Cl)s3)cc2)c(Cl)c1 [Compound 80]
- control of the armyworm [2]: 100%

Compound: FC(F)(F)c1ccc(Oc2ccc(OCCCOc3ccc(OCC=C(Cl)Cl)cc3Cl)cc2)nc1 [Compound 83]
- control of the armyworm [2]: 100%

Compound: FC(F)(F)c1cnc(Oc2ccc(OCCCOc3ccc(OCC=C(Cl)Cl)cc3Cl)cc2)c(Cl)c1 [Compound 84]
- control of the armyworm [2]: 100%

Compound: FC(F)(F)c1ccc(Oc2ccc(OCCCOc3c(Cl)cc(OCC=C(Cl)Cl)c(Cl)c3Cl)cc2)nc1 [Compound 117]
- Mortality of armyworm (%) ([2]; 10 mg/L): 100%
- Mortality of armyworm (%) ([2]; 100 mg/L): 100%
- control of the armyworm [2]: 100%

Compound: FC(F)(F)c1cnc(Oc2ccc(OCCCOc3c(Cl)cc(OCC=C(Cl)Cl)c(Cl)c3Cl)cc2)c(Cl)c1 [Compound 118]
- control of the armyworm [2]: 100%

Compound: ClC(Cl)=CCOc1cc(Cl)c(OCCCOc2ccc(Oc3nc4ccc(Cl)cc4o3)cc2)c(Cl)c1 [Compound 219]
- control of the armyworm [2]: 100%
- mortality at 10 µg/mL ([2]; 10 mg/L): 70%
- mortality at 100 µg/mL ([2]; 100 mg/L): 100%

Compound: FC(F)(F)c1cnc(Oc2ccc(OCCCOc3c(Cl)cc(OCC=C(Cl)Cl)cc3Cl)cc2Cl)c(Cl)c1 [Compound D-1, reference compound]
- mortality at 6.25 µg/mL [1, 10]: 0%
- mortality at 25 µg/mL [1, 11]: 30%
- mortality at 50 µg/mL [1, 12]: 80%
- mortality at 10 µg/mL ([2]; 10 mg/L): 30%
- mortality at 100 µg/mL ([2]; 100 mg/L): 90%
- control against Prodenia litura [3]: above 80%
- control on Heliothis virescens [4]: above 80%

Compound: FC(F)(F)c1ccc(OCCCOc2c(Cl)cc(OCC=C(Cl)Cl)cc2Cl)nc1 [Compound D-2, pyridalyl, reference compound]
- mortality at 6.25 µg/mL [1]: 50%
- mortality at 25 µg/mL [1]: 75%
- mortality at 50 µg/mL [1]: 90%
- mortality at 2.5 µg/mL [5]: 16.7%
- mortality at 10 µg/mL [5]: 100%
- mortality at 10 µg/mL [6]: 0%
- mortality at 20 µg/mL [6]: 25%
- Control efficiency (%) ([7]; 1 day after treatment): 70.76%
- Control efficiency (%) ([7]; 3 days after treatment): 83.34%
- Control efficiency (%) ([7]; 7 days after treatment): 78.33%
- Control efficiency (%) ([7]; 14 days after treatment): 61.21%
- Control efficacy (%) ([8]; 1 day after treatment): 95.1%
- Control efficacy (%) ([8]; 3 days after treatment): 97.0%
- Control efficacy (%) ([8]; 7 days after treatment): 94.9%
- Control efficiency (%) ([9]; 1 day after treatment): 49.7%
- Control efficiency (%) ([9]; 4 day after treatment): 84.3%
- Control efficiency (%) ([9]; 7 day after treatment): 88.5%
- Control efficiency (%) ([9]; 12 days after treatment): 75.8%
